In US11078202B2, “β-lactamase inhibitor and use thereof” (priority 2018, dated 2021):
Counter-ions that a name gives are not always drawn.

How the values were obtained:
Type in all cases: cell-based
[1] = system: Klebsiella pneumoniae XNWB 0001; assay: MIC assay of test compounds combined with ceftazidime (8 μg/mL); settings: ceftazidime 8 μg/mL fixed
Procedure: (§1) The bacterial strains used for the minimum inhibitory concentration (MIC) test were frozen in a −80° C. ULT freezer and thawed 2 days before use. A small amount of frozen bacterial strains were scraped using a sterile inoculating loop, streaked onto a TSA solid culture dish for inoculation, and then cultured for 20-24 h at 35±2° C. in a normal atmospheric environment. 5-10 colonies with similar morphology were picked from the culture dish using a sterile inoculating loop and then re-streaked onto a suitable solid culture dish. Then the dish was placed into a normal incubator for culture for 20-24 h at 35±2° C. 5-10 single bacterial colonies were picked from the solid culture dish, resuspended in 500 μL of 0.9% NaCl, and adjusted to an OD600 of 0.1-0.15 with a spectrophotometer. The bacteria were then diluted 300-fold with 1.1×CAMHB. […] Dilution of test compounds: […] 2 μL of each compound in the dilution master plate of the test compounds was transferred to the corresponding well of the assay plates. In the mean time, 2 μL of 100% DMSO was transferred to the compound-free wells (GC and SC wells). (1) 8 μL of imipenem in the additive plate of imipenem was transferred to the corresponding wells of the assay plates; (2) 8 μL of ceftazidime in the additive plate of ceftazidime was transferred to the corresponding wells of the assay plates; (3) 8 μL of ampicillin in the additive plate of ampicillin was transferred to the corresponding wells of the assay plates. 90 μL of corresponding bacterial inocula were added to wells (except for SC wells) of the assay plates. After addition, the 6 assay plates were covered by sterile covers. The mixtures in the assay plates were centrifuged by a centrifuge at 1000 rpm for 30 s, and mixed uniformly by oscillating with a microplate oscillator at 800 rpm for 1 min, and then cultured in a common incubator for 16-20 h at 35±2° C. The minimum inhibitory concentration of each compound was recorded by reference to guidelines from the Clinical and Laboratory Standards Institute. […] The effect of the test compounds in combination with imipenem, ceftazidime, and ampicillin was also tested. […] The bacterial inocula in the assay plates were resuscitated from TSA and diluted in CAMHB, while growth controls (GC wells) and sterile controls (SC wells) were set up in the assay plates. The minimum inhibitory concentration of each compound combination against different bacteria was observed and recorded after the assay plates were incubated in a common incubator at 35±2° C. for 16-20 h, and the results are shown in Tables 1-3.

[2] = system: Klebsiella pneumoniae XNWB 0004; assay: as above; settings: ceftazidime 8 μg/mL fixed
Procedure: as §1

[3] = system: Klebsiella pneumoniae XNWB 0002; assay: as above; settings: ceftazidime 8 μg/mL fixed
Procedure: as §1

[4] = system: Klebsiella pneumoniae XNWB 0006; assay: as above; settings: ceftazidime 8 μg/mL fixed
Procedure: as §1

[5] = system: Klebsiella pneumoniae XNWB 0005; assay: as above; settings: ceftazidime 8 μg/mL fixed
Procedure: as §1

[6] = system: Acinetobacter baumannii XNWB 0007; assay: as above; settings: ceftazidime 8 μg/mL fixed
Procedure: as §1

[7] = system: Klebsiella pneumoniae XNWB 0003; assay: as above; settings: ceftazidime 8 μg/mL fixed
Procedure: as §1

[8] = system: Pseudomonas aeruginosa XNWB 0008; assay: as above; settings: ceftazidime 8 μg/mL fixed
Procedure: as §1

[9] = system: Klebsiella pneumoniae XNWB 0001; assay: MIC assay of test compounds combined with imipenem (4 μg/mL); settings: imipenem 4 μg/mL fixed
Procedure: as §1

[10] = system: Klebsiella pneumoniae XNWB 0004; assay: as above; settings: imipenem 4 μg/mL fixed
Procedure: as §1

[11] = system: Klebsiella pneumoniae XNWB 0002; assay: as above; settings: imipenem 4 μg/mL fixed
Procedure: as §1

[12] = system: Klebsiella pneumoniae XNWB 0006; assay: as above; settings: imipenem 4 μg/mL fixed
Procedure: as §1

[13] = system: Klebsiella pneumoniae XNWB 0005; assay: as above; settings: imipenem 4 μg/mL fixed
Procedure: as §1

[14] = system: Acinetobacter baumannii XNWB 0007; assay: as above; settings: imipenem 4 μg/mL fixed
Procedure: as §1

[15] = system: Klebsiella pneumoniae XNWB 0003; assay: as above; settings: imipenem 4 μg/mL fixed
Procedure: as §1

[16] = system: Pseudomonas aeruginosa XNWB 0008; assay: as above; settings: imipenem 4 μg/mL fixed
Procedure: as §1

Compound	The minimum concentration of test compounds combined with ceftazidime (8 μg/mL) for bacteriostasis [1]	The minimum concentration of test compounds combined with ceftazidime (8 μg/mL) for bacteriostasis [2]	The minimum concentration of test compounds combined with ceftazidime (8 μg/mL) for bacteriostasis [3]	The minimum concentration of test compounds combined with ceftazidime (8 μg/mL) for bacteriostasis [4]	The minimum concentration of test compounds combined with ceftazidime (8 μg/mL) for bacteriostasis [5]	The minimum concentration of test compounds combined with ceftazidime (8 μg/mL) for bacteriostasis [6]	The minimum concentration of test compounds combined with ceftazidime (8 μg/mL) for bacteriostasis [7]	The minimum concentration of test compounds combined with ceftazidime (8 μg/mL) for bacteriostasis [8]	The minimum concentration of test compounds combined with imipenem (4 μg/mL) for bacteriostasis [9]	The minimum concentration of test compounds combined with imipenem (4 μg/mL) for bacteriostasis [10]	The minimum concentration of test compounds combined with imipenem (4 μg/mL) for bacteriostasis [11]	The minimum concentration of test compounds combined with imipenem (4 μg/mL) for bacteriostasis [12]	The minimum concentration of test compounds combined with imipenem (4 μg/mL) for bacteriostasis [13]	The minimum concentration of test compounds combined with imipenem (4 μg/mL) for bacteriostasis [14]	The minimum concentration of test compounds combined with imipenem (4 μg/mL) for bacteriostasis [15]	The minimum concentration of test compounds combined with imipenem (4 μg/mL) for bacteriostasis [16]
NC1(Cc2nnc([C@@H]3CC4(CC4)[C@@H]4CN3C(=O)N4OS(=O)(=O)O)o2)CC1 [Example 21, (1R,4S)-4-(5-((1-aminocyclopropyl)methyl)-1,3,4-oxadiazol-2-yl)-6-oxo-5,7-diazaspiro [bicyclo[3.2.1]octane-2,1′-cyclopropan]-7-yl sulfate]	A (A: <8 μg/mL)	B (B: 8-16 μg/mL)	A (A: <8 μg/mL)	A (A: <8 μg/mL)	B (B: 8-16 μg/mL)	C (C: 16-128 μg/mL)	A (A: <8 μg/mL)	C (C: 16-128 μg/mL)	A (A: <8 μg/mL)	A (A: <8 μg/mL)	A (A: <8 μg/mL)	A (A: <8 μg/mL)	A (A: <8 μg/mL)	C (C: 16-128 μg/mL)	A (A: <8 μg/mL)	C (C: 16-128 μg/mL)
O=C1N2C[C@H](N1OS(=O)(=O)O)C1(CC1)C[C@H]2c1cc(CNC2CNC2)on1 [Example 48, (1R,4S)-4-(5-((azetidin-3-ylamino)methyl)isoxazol-3-yl)-6-oxo-5,7-diazaspiro[bicycle [3.2.1]octane-2,1′-cyclopropan]-7-yl sulfate]	A (A: <8 μg/mL)	B (B: 8-16 μg/mL)	A (A: <8 μg/mL)	A (A: <8 μg/mL)	A (A: <8 μg/mL)	C (C: 16-128 μg/mL)	A (A: <8 μg/mL)	B (B: 8-16 μg/mL)	A (A: <8 μg/mL)	A (A: <8 μg/mL)	A (A: <8 μg/mL)	A (A: <8 μg/mL)	A (A: <8 μg/mL)	C (C: 16-128 μg/mL)	A (A: <8 μg/mL)	A (A: <8 μg/mL)
N[C@H]1C[C@H](c2nnc([C@@H]3CC4(CC4)[C@@H]4CN3C(=O)N4OS(=O)(=O)O)o2)C1 [Example 16]	A (A: <8 μg/mL)	B (B: 8-16 μg/mL)	A (A: <8 μg/mL)	A (A: <8 μg/mL)	A (A: <8 μg/mL)	C (C: 16-128 μg/mL)	A (A: <8 μg/mL)	B (B: 8-16 μg/mL)	A (A: <8 μg/mL)	A (A: <8 μg/mL)	A (A: <8 μg/mL)	A (A: <8 μg/mL)	A (A: <8 μg/mL)	B (B: 8-16 μg/mL)	A (A: <8 μg/mL)	A (A: <8 μg/mL)
